Source: EP3050567B1, “COMPOUND FOR ACTIVATING AMPK AND USES THEREOF” (Energenesis Biomedical Co., Ltd., priority 2013, dated 2015)

Test system: 3T3 cells
Assay: Fibroblast proliferation assay (trypan blue cell counting)
Format: cell-based, mouse
Conditions: 72 h, mean±SEM of three experiments
Protocol: […] fibro blast cell line 3T3 were cultured in high-glucose Dulbecco's modified Eagle's medium (DMEM) containing 10% fetal bovine serum (FBS), 4 mM L-glutamine, 2 mM sodium pyruvate and 1% penicillin/streptomycin (Invitrogen GibcoBRL, Carlsbad, Calif., USA) at 37°C under 5% CO2. For cell proliferation assay, 3T3 cells were plated at 1 × 10^5 per well (6-well plate). Twenty-four hours after plating, cells were treated with indicated concentration of adenine for 72 h and the number of viable cells was counted. Cells were detached using trypsin-EDTA solution and stained with trypan blue. The living cells were counted using hemocytometer.

Nc1ncnc2nc[nH]c12 [Adenine, adenine]
Cellnumber (% to control) (adenine 10 microM): 91±2.7 % to control
Cellnumber (% to control) (adenine 50 microM): 73±8.1 % to control
Cellnumber (% to control) (adenine 100 microM): 64±5.3 % to control
Cellnumber (% to control) (adenine 200 microM): 48±2.8 % to control
Cellnumber (% to control) (adenine 500 microM): 33±6.4 % to control
Cellnumber (% to control) (adenine 1000 microM): 27±11.3 % to control
